Assay results: patent US20250059264A1, “METHOD OF TREATING STROKE” (AlaMab Therapeutics, Inc., priority 2023, published 2025)

Assays:
[1] = test system: rat model of stroke induced by middle cerebral artery occlusion (MCAO); assay: Cerebral infarct volume by TTC staining, dosing regimen (Example 4); assay type: in vivo, SD rats; details: 10 mg/kg (table label) i.v. Bid from 30 min after infarction, 14-days post-operation
Procedure: The first administration of the respective treatments was started 30 minutes (Day 1 of study) after the MCAO procedure of the rats. For the butylphthalide group, subsequent doses were administered every day after for 14 days. For the ALMB-0166 test groups, a second dose of the antibody was administered at Day 4 post-stroke (Day 4 of the study). Thirty-six (36) SD rats received behavioral training after adaptive feeding period and before the operation to establish stroke models. The behavioral training included beam-walking, grip and rotarod tests. The experimental rats were then randomly divided into 6 groups according to the body weight, with 6 rats in each test group as described in Table 15. The rats were fasted overnight before modeling and were anesthetized with isoflurane. […] The body weight of rats was recorded before the operation (Day 0 of study) and on Days 2, 4, 7, and 11 after the procedure. The rats were scored by the Longa method at Day 1 (24-hours) post-procedure. The neurological function was evaluated at Days 1, 2, 4, 7, and 14 after the procedure, and was assessed by beam-walking, grip strength, and rotarod tests. […] The total infarct volume was determined, and the infarct volume ratio was calculated by dividing the total infarct volume by the whole brain volume. […]

[2] = test system: mouse model of stroke induced by middle cerebral artery occlusion (MCAO); assay: Brain volume (Example 1); assay type: in vivo, ICR mice; details: 10 mg/kg i.v. Bid from 30 min after infarction; 48 h after reperfusion
Procedure: (§1) The administration of the respective treatments was started 30 minutes after the MCAO procedure of the mice.
(§2) Seventy-two (72) ICR mice received behavioral training after adaptive feeding period and before the operation to establish stroke models. The behavioral training included beam-walking and rotarod test. The experimental mice were then randomly divided into 6 groups according to the values of the body weight, with 12 mice in each test group as described in Table 1.
(§3) The mice were fasted overnight before modeling and were anesthetized with isoflurane. Right middle cerebral artery occlusion (MCAO) was induced in mice using the intraluminal filament technique to mimic focal cerebral ischemic stroke. After 1 hr, reperfusion was allowed by removing the occlusion. During the operation, a white light was used to maintain the mouse rectal temperature between 36.5° C.-37.0° C.
(§4) Administration of each treatment was performed 0.5 h after the infarction. The neurological function score was evaluated at 24 hrs and 48 hrs after reperfusion, as was assessed by beam-walking, grip strength, and rotarod tests. At 48 h after reperfusion, the whole brain tissue of all rats was harvested to assess the cerebral infarct area by TTC staining, as well as to measure brain volume and brain water content, two indicators of acute cerebral edema.

[3] = test system: mouse model of stroke induced by middle cerebral artery occlusion (MCAO); assay: Rotarod test (Example 1); assay type: in vivo, ICR mice; details: 10 mg/kg i.v. Bid from 30 min after infarction
Procedure: as §1, §2, §3, §4

[4] = test system: mouse model of stroke induced by middle cerebral artery occlusion (MCAO); assay: Cerebral infarct volume by TTC staining, time of treatment (Example 2); assay type: in vivo, ICR mice; details: 48 h after reperfusion; for Improvement rate of infarction: vs model
Procedure: (§5) The administration of 10 mg/kg butylphthalide and 50 mg/kg ALMB-0166 was started 30 minutes, 2 hours, or 6 hours after the MCAO procedure of the mice. Ninety-six (96) ICR mice received behavioral training after adaptive feeding period and before the operation to establish stroke models. The behavioral training included beam-walking and rotarod test. The experimental mice were then randomly divided into 8 groups according to the values of the body weight, with 12 mice in each test group as described in Table 1. The mice were fasted overnight before modeling and were anesthetized with isoflurane. Right middle cerebral artery occlusion (MCAO) was induced in mice using the intraluminal filament technique to mimic focal cerebral ischemic stroke. After 1 hr, reperfusion was allowed by removing the occlusion. Administration of each treatment was performed 0.5 hrs, 2 hrs, or 6 hrs after the infarction. The neurological function score was evaluated at 24 hrs and 48 hrs after reperfusion, as was assessed by beam-walking, grip strength, and rotarod tests. At 48 hrs after reperfusion, the whole brain tissue of all rats was harvested to assess the cerebral infarct area by TTC staining, as well as to measure brain volume and brain water content, two indicators of acute cerebral edema.

[5] = test system: mouse model of stroke induced by middle cerebral artery occlusion (MCAO); assay: Brain water content, time of treatment (Example 2); assay type: in vivo, ICR mice; details: 48 h after reperfusion
Procedure: as §5

[6] = test system: rat model of stroke induced by middle cerebral artery occlusion (MCAO); assay: Cerebral infarct volume by TTC staining (Example 3); assay type: in vivo, SD rats; details: 10 mg/kg (table label) i.v. Bid from 30 min after infarction, 48 h after reperfusion
Procedure: The administration of the respective treatments was started 30 minutes after the MCAO procedure of the rats.
as §2, with “SD rats” for “ICR mice”, “beam-walking, grip” for “beam-walking”, “tests.” for “test.”, “rats” for “mice”, “the” for “the values of the”, “15.” for “1.”
The rats were fasted overnight before modeling and were anesthetized with isoflurane. Right middle cerebral artery occlusion (MCAO) was induced in each rat using the intraluminal filament technique to mimic focal cerebral ischemic stroke. After 2 hrs, reperfusion was allowed by removing the occlusion.
as §4, with “The rats were scored by the Longa method at 24-hours post-procedure. The” for “The”, “function” for “function score”, “at 24-hr” for “at 24 hrs”, “and 48-hr” for “and 48 hrs”, “reperfusion, and” for “reperfusion, as”

[7] = test system: rat model of stroke induced by middle cerebral artery occlusion (MCAO); assay: Rotarod test, dosing regimen (Example 4); assay type: in vivo, SD rats; details: 10 mg/kg (table label) i.v. Bid from 30 min after infarction
Procedure: (§6) The first administration of the respective treatments was started 30 minutes (Day 1 of study) after the MCAO procedure of the rats. For the butylphthalide group, subsequent doses were administered every day after for 14 days. For the ALMB-0166 test groups, a second dose of the antibody was administered at Day 4 post-stroke (Day 4 of the study). Thirty-six (36) SD rats received behavioral training after adaptive feeding period and before the operation to establish stroke models. The behavioral training included beam-walking, grip and rotarod tests. The experimental rats were then randomly divided into 6 groups according to the body weight, with 6 rats in each test group as described in Table 15. The rats were fasted overnight before modeling and were anesthetized with isoflurane. Right middle cerebral artery occlusion (MCAO) was induced in each rat using the intraluminal filament technique to mimic focal cerebral ischemic stroke. After 2 hrs, reperfusion was allowed by removing the occlusion. Administration of butylphthalide was performed 0.5 hrs after the infarction, and every day after the operation (14 days). Administration of ALMB-0166 and the vehicle treatment was performed at 0.5 hrs and at Day 4 after the operation. The body weight of rats was recorded before the operation (Day 0 of study) and on Days 2, 4, 7, and 11 after the procedure. The rats were scored by the Longa method at Day 1 (24-hours) post-procedure. The neurological function was evaluated at Days 1, 2, 4, 7, and 14 after the procedure, and was assessed by beam-walking, grip strength, and rotarod tests. At Day 14 after reperfusion, the whole brain tissue of all rats was harvested to assess the cerebral infarct area by TTC staining. The total infarct volume was determined, and the infarct volume ratio was calculated by dividing the total infarct volume by the whole brain volume. For calculating the infarct volume rate, the difference in infarct volume ratio between the model group and the corresponding administration group was divided by the infarct volume ratio of the model group.

[8] = test system: mouse model of stroke induced by middle cerebral artery occlusion (MCAO); assay: Brain water content (Example 1); assay type: in vivo, ICR mice; details: 10 mg/kg i.v. Bid from 30 min after infarction; 48 h after reperfusion
Procedure: as §1, §2, §3, §4

[9] = test system: rat model of stroke induced by middle cerebral artery occlusion (MCAO); assay: Grip strength, dosing regimen (Example 4); assay type: in vivo, SD rats; details: 10 mg/kg (table label) i.v. Bid from 30 min after infarction
Procedure: as §6

[10] = test system: mouse model of stroke induced by middle cerebral artery occlusion (MCAO); assay: Beam-walking test, time of treatment (Example 2); assay type: in vivo, ICR mice
Procedure: as §5

[11] = 10 mg/kg i.v. once 0.5 hr after infarction
[12] = 10 mg/kg i.v. once 2 hr after infarction
[13] = 10 mg/kg i.v. once 6 hr after infarction

SMILES: CCCCC1OC(=O)c2ccccc21 (stereo not shown) [Butylphthalide]
- Cerebral Infarction Volume [1]: 15.01%
- Improvement rate of infarction ([1]; vs model): 23.64%
- Brain volume [2]: 0.413 ± 0.03 mL
- Rotarod test score, Time ([3]; 24 h): 216.67 ± 91.22 s
- Rotarod test score, Time ([3]; 48 h): 146.50 ± 137.21 s
- Cerebral Infarction Volume [4, 11]: 28.56%
- Improvement rate of infarction [4, 11]: 33.50%
- Cerebral Infarction Volume [4, 12]: 34.25%
- Improvement rate of infarction [4, 12]: 20.25%
- Cerebral Infarction Volume [4, 13]: 31.89%
- Improvement rate of infarction [4, 13]: 25.76%
- Brain water content [5, 11]: 329.00 mg
- Brain water ratio [5, 11]: 81.23%
- Brain water content [5, 12]: 326.33 mg
- Brain water ratio [5, 12]: 81.25%
- Brain water content [5, 13]: 342.83 mg
- Brain water ratio [5, 13]: 82.36%
- Cerebral Infarction Volume [6]: 22.41%
- Improvement rate of infarction ([6]; vs model): 30.84%
- Rotarod test score, Time ([7]; Day 0): 124.5 s
- Rotarod test score, Time ([7]; Day 2): 126.8 s
- Rotarod test score, Time ([7]; Day 4): 122.2 s
- Rotarod test score, Time ([7]; Day 7): 130.7 s
- Rotarod test score, Time ([7]; Day 14): 157.3 s
- Brain water content [8]: 329.50 ± 23.60 mg
- Brain water ratio [8]: 81.84 ± 1.30%
- Grip Strength ([9]; Day 0): 504.65 g
- Grip Strength ([9]; Day 2): 565.99 g
- Grip Strength ([9]; Day 4): 520.36 g
- Grip Strength ([9]; Day 7): 523.26 g
- Grip Strength ([9]; Day 14): 585.23 g
- Beam-walking time ([10]; 10 mg/kg i.v. once 0.5 hr after infarction, 24 h): 57.69 ± 3.94 s
- Beam-walking time ([10]; 10 mg/kg i.v. once 0.5 hr after infarction, 48 h): 51.37 ± 16.46 s
- Beam-walking time ([10]; 10 mg/kg i.v. once 2 hr after infarction, 24 h): 53.12 ± 12.48 s
- Beam-walking time ([10]; 10 mg/kg i.v. once 2 hr after infarction, 48 h): 52.73 ± 10.98 s
- Beam-walking time ([10]; 10 mg/kg i.v. once 6 hr after infarction, 24 h): 10.32 s
- Beam-walking time ([10]; 10 mg/kg i.v. once 6 hr after infarction, 48 h): 58.57 ± 3.23 s
